# Results: patent publication US9303076B2, “Cell-penetrating peptides and uses thereof” (Hoffmann-La Roche Inc., priority 2010, dated 2016)
# Assays:
# [1] = system: MCF-7 human breast cancer cells; assay: cell viability/apoptosis after 24 h exposure to pro-apoptotic peptides and CPP fusions; assay type: cell-based; conditions: MCF-7 cells; for cell viability / cytotoxicity due to induction of apoptosis: 20 μM; for cell viability / induction of apoptosis: various concentrations
# Protocol: (§1) MCF-7 human breast cancer cells were incubated for 24 h in the presence of various concentrations of NRTN (squares), Nur (circles), and NurNRTN (triangles) peptides. The respective amino acid sequences are given in the bottom panel. The experimental approach for assessing cell viability (and thus induction of apoptosis) was the same as in FIG. 3.
# as §1, with “4E-BP1 (circles), TAT4E-BP1” for “NRTN”, “(squares),” for “(squares), Nur (circles),”, “NRTN4E-BP1” for “NurNRTN”, “peptides (top panel). […]” for “peptides.”
# Luminescence was analyzed in an InfiniteF200 luminescence reader.
# Then, the cells were treated with a luminogenic peptide substrate in order to measure dead-cell protease activity, which is released from cells that have lost membrane integrity. […] The luminescence of this assay therefore represents dead cells. The 96 well plates were then analyzed in an InfiniteF200 luminescence reader.
# Despite its proven ability to convert BCL-2 into a pro-apoptotic molecule, addition of the latter peptide (i.e. “Nor/Nur”; SEQ ID NO: 72) to cancer cells, even in high concentrations, is not sufficient to induce apoptosis, as the cellular target protein is located in the cytoplasm, but the peptide per se cannot effectively penetrate through the cell membrane to reach the target. In brief, MCF-7 breast cancer cells were incubated in the presence of this peptide for 24 h.
# (§2) Subsequently, it was evaluated whether the NurNRTN fusion peptide is capable of penetrating cellular membranes and thereby induces pro-apoptotic activity within cells. MCF-7 human breast cancer cells were used as a model. The experimental approach was as described above (cf. Example 1). […] This effect was dose dependent: cytotoxicity increased with increasing concentrations of peptide.
# as §2, with “NRTN4E-BP1” for “NurNRTN”
# human Aha1 mRNA = assay: siRNA transfection screening (siAha1 vs siGL3 control, bDNA assay of Aha1/GAPDH mRNA); assay type: cell-based
# Protocol: For the quantification of cellular mRNA levels bDNA (branched DNA) assays were performed which enable the detection of individual mRNA levels. To this end, a defined number of the cells to be analyzed was seeded into 96-well plates and allowed to attach over night. On the next day, the cells were transfected with siRNA.
# After further 24 hours, the mRNA species were quantified using the QuantiGene Plex 2.0 assay kit according to the manufacturers instructions (Affymetrix Inc., Santa Clara, Calif., USA). In brief, cell lysates were transferred to a capture plate in the presence of a gene-specific probe set and incubated at 53° C. over night. After washing, the wells were sequentially incubated at 53° C. with an amplifier agent and an alkaline phosphatase (AP)-linked label probe with a washing step in between. Subsequently, the luminescent AP substrate dioxitane was added and incubated for 30 min at 53° C. Luminescence was assayed using an InfiniteF200 luminescence reader (Tecan Austria GmbH, Groding, Austria).
# In order to analyze the potential CPPs for their ability to transfect siRNA into mammalian cells an increasing peptide concentration (from 1 μM to 20 μM) was employed along with a constant siRNA concentration (100 nM). This range of peptide concentrations was used as it had been shown that positively charged peptides such as TAT are internalized into cells in ranges up to 10 μM and remain in intracellular membrane compartments without significant egress into the cytosol (Duchardt, F. et al. (2007) Traffic 8, 848-866). […] A concentration of 10 nM siRNA is in the saturation range as determined in control experiments using the DharmaFECT transfection reagent (Dharmacon, Inc., Lafayette, Colo., USA; data not shown).
# The siRNA oligonucleotides employed were directed against human Aha1 mRNA (Panaretou, B. et al. (2002) Mol. Cell 10, 1307-1318) or against luciferase mRNA as a control.
# Complexes of siRNA and the respective peptides were formed in OptiMEM medium and incubated for 15 minutes at room temperature. The cells were incubated in the presence of the complexes for three hours in OptiMEM. After washing, the cells were incubated for further 21 or 45 hours in normal growth medium. Thereafter, the levels of Aha1 mRNA and a reference mRNA (i.e. GAPDH mRNA) were measured by means of a bDNA assay. These assays were performed with cells that were transfected with siAHA1 and with a control siRNA (siGL3, luciferase), respectively.
# As a measure for specific RNAi, the reduction of Aha1 mRNA levels relative to GAPDH mRNA levels was compared in siAHA1-transfected cells and siGL3-transfected cells. Specific siRNA mediated transfection causes a reduction in Aha1/GAPDH mRNA values in siAhA1-compared to siGL3-transfected cells. FIG. 3 depicts the screening readout of these assays: the Aha1/GAPDH mRNA values of non-transfected control cells were set to 100% (for each assay), and the Aha1/GAPDH mRNA values of siAha1- or siGL3-transfected cells were expressed relative to that. For this normalized data set, the differences between the respective Aha1/GAPDH mRNA levels of siAha1- and siGL3-transfected cells were determined. Specific peptides caused a significant reduction in siAha1 transfection without reducing siGL3 transfections, which results in positive difference values. The more pronounced these values are, the more specific RNAi is observed (cf. FIG. 3).
# MCF7 cells [2] = assay: FACS analysis of internalization of FITC-labeled peptides; assay type: cell-based, human; conditions: FITC-labeled peptide 1, 5, 10 μM; 3 hours at 37° C.; proteinase K treated
# Protocol: For FACS analysis, MCF7 cells (ATCC number HTB-22) were detached by 15 min incubation in accutase (an enzyme solution having proteolytic and collagenolytic activities; commercially available from various suppliers). After washing in FACS buffer (PBS containing 5% FCS), the cells were seeded in a 96 well, rounded bottom multi-well plate (Cat. No. 3799, Corning Inc., Corning, N.Y. USA) in a final density of 3×10^5 cells/ml and used immediately. The cells were incubated in the respective presence of 1 μM, 5 μM and 10 μM FITC-labeled peptides in OptiMEM medium for 3 hours at 37° C. Afterwards, the cells were washed in FACS buffer and incubated in proteinase K (0.02 mg/ml) containing buffer for 30 minutes at 37° C. The cells were washed twice and analyzed with the FACSCanto II (BD Biosciences; San Jose, Calif., USA) using the FITC channel.
# For determining the internalization behavior of the CPPs identified in the screening procedures FITC-labeled derivates of said peptides (at 1 μM, 5 μM, and 10 μM, respectively) were analyzed by means of FACS. The following peptides were used: NRTN as a transfecting peptide, WNT16 as a non-transfecting peptide, FALL as a toxic peptide and TAT as a reference (positive control) (cf. FIG. 12). MCF7 cells were incubated in the presence of the fluorescent peptide derivatives for 3 hours at 37° C. in OptiMEM. Subsequently, the cells were treated with proteinase K for 30 minutes at 37° C. to remove surface bound peptides, and thus to ensure the monitoring only of internalized peptides. The cells were then washed in PBS and analyzed by FACS.
# MCF7 cells [3] = assay: growth inhibition/toxicity (CellTiter-Glo viability, GAPDH mRNA levels); conditions: MCF7 cells; peptide 1 μM to 20 μM
# Protocol: MCF7 cells were seeded at a density of 15.000 cells per well in 96 well plates. The cells were incubated for 24 hours at 37° C., 5% CO2 and 85% humidity in RPMI 1640 medium supplemented with 10% FCS (fetal calf serum) and L-glutamine. For functional assays, the cells were washed in OptiMEM medium and RPMI 1640 was replaced with OptiMEM (all reagents were purchased from Invitrogen Corporation, Carlsbad, Calif., USA). Complexes of siRNAs and peptides were formed by incubation of 100 nM siRNA with the indicated peptide concentrations in OptiMEM for 30 minutes at room temperature. The complexes were added to the cells and incubated for 3 hours. Subsequently, OptiMEM was replaced with normal RPMI 1640 growth medium. The cells were incubated for further 21 hours for generating bDNA lysates, and for further 45 hours for performing CellTiter-Glo or CytoTox-Glo assays (cf. below).
# In order to measure the number of living cells the CellTiter-Glo Luminescent Cell Viability Assay (Promega Corporation, Madison, Wis., USA) was used according to the protocol of the manufacturer. The cells were incubated for 48 hours in the presence of peptides and siRNAs. Subsequently, the cells are lysed, and a luminescent signal proportional to the amount of ATP present is generated which, in turn, is proportional to the number of living cells present. Luminescence was analyzed in an InfiniteF200 luminescence reader.
# Based on this observation, GAPDH mRNA levels were used as a general readout for toxicity: an average measurement of 100% GAPDH mRNA relative to the medium control was considered as non-toxic, values between 99% and 70% as moderate toxic, and values of less than 70% as toxic (cf. FIG. 3).
# Similarly, peptides resulting in GAPDH mRNA values >70% were classified as “nontoxic”, whereas peptides that caused a reduction of GAPDH mRNA to lesser values were termed “toxic”.
# siRNA duplex = assay: gel-shift assay of peptide/siRNA complex formation; assay type: binding; conditions: ethidium bromide staining
# Protocol: Gel-shift assays were performed by mixing […] siRNA duplex with the respective peptides in a given molar ratio in water. The complexes were formed for 1 hour at 37° C. and analyzed on a 2.5% agarose gel with ethidium bromide (run: 40 minutes at 125 V). For proteinase K treatment, 1 μl proteinase K was added to a standard reaction as indicated above.
# Mechanisms that may explain transfection functionalities of charged peptides such as TAT or protamine include the formation of complexes between positively charged peptides and negatively charged nucleic acids. Such complexes enable peptide-mediated membrane-interacting and/or endosome escape functionalities to transfer the complexed nucleic acids into the cytosol of cells (Law, M. et al. (2008) Biotechnol. Prog. 24, 957-963) In order to address whether the above mechanism may apply to the NTRN-derived peptide as well gel-shift assays were performed (cf. FIG. 8). To this end, siRNA was co-incubated with increasing concentrations of peptide, followed by analyses of their migration pattern via gel electrophoresis.
molecule,measurement,setting,value
"CC[C@H](C)[C@H](NC(=O)[C@H](CCCNC(=N)N)NC(=O)[C@@H](NC(=O)CNC(=O)[C@H](CCCNC(=N)N)NC(=O)[C@H](CCCNC(=N)N)NC(=O)[C@H](CCCNC(=N)N)NC(=O)[C@H](CCC(N)=O)NC(=O)[C@H](CCCNC(=N)N)NC(=O)[C@H](CCCNC(=N)N)NC(=O)[C@H](CCCCN)NC(=O)[C@H](CCCCN)NC(=O)[C@H](CCCNC(=N)N)NC(=O)CNC(=O)[C@H](Cc1ccc(O)cc1)NC(=O)CCOCCOCCOCCNC(=O)[C@@H](N)CS)[C@@H](C)O)C(=O)N[C@H](C(=O)N[C@@H](Cc1ccc(O)cc1)C(=O)N[C@@H](CC(=O)O)C(=O)N[C@@H](CCCNC(=N)N)C(=O)N[C@@H](CCCCN)C(=O)N[C@@H](Cc1ccccc1)C(=O)N[C@@H](CC(C)C)C(=O)N[C@@H](CCSC)C(=O)N[C@@H](CCC(=O)O)C(=O)N[C@@H](CS)C(=O)N[C@@H](CCCNC(=N)N)C(=O)N[C@@H](CC(N)=O)C(=O)N[C@@H](CO)C(=O)N1CCC[C@H]1C(=O)N[C@H](C(=O)N[C@H](C(=O)O)[C@@H](C)O)C(C)C)[C@@H](C)CC [TAT4E-BP1, reference compound]",cell viability / cytotoxicity due to induction of apoptosis,[1],clear evidence for reduction in cell viability and cytotoxicity
"CC[C@H](C)[C@H](NC(=O)[C@H](CCCNC(=N)N)NC(=O)[C@@H](NC(=O)CNC(=O)[C@H](CCCNC(=N)N)NC(=O)[C@H](CCCNC(=N)N)NC(=O)[C@H](CCCNC(=N)N)NC(=O)[C@H](CCC(N)=O)NC(=O)[C@H](CCCNC(=N)N)NC(=O)[C@H](CCCNC(=N)N)NC(=O)[C@H](CCCCN)NC(=O)[C@H](CCCCN)NC(=O)[C@H](CCCNC(=N)N)NC(=O)CNC(=O)[C@H](Cc1ccc(O)cc1)NC(=O)CCOCCOCCOCCNC(=O)[C@@H](N)CS)[C@@H](C)O)C(=O)N[C@H](C(=O)NCC(=O)N[C@@H](CC(=O)O)C(=O)NCC(=O)N[C@@H](CCCCN)C(=O)N[C@@H](Cc1ccccc1)C(=O)NCC(=O)N[C@@H](CCSC)C(=O)N[C@@H](CCC(=O)O)C(=O)N[C@@H](CS)C(=O)N[C@@H](CCCNC(=N)N)C(=O)N[C@@H](CC(N)=O)C(=O)N[C@@H](CO)C(=O)N1CCC[C@H]1C(=O)N[C@H](C(=O)N[C@H](C(=O)O)[C@@H](C)O)C(C)C)[C@@H](C)CC [TATinact4E-BP1, reference compound]",cell viability / cytotoxicity due to induction of apoptosis,[1],completely inactive
FALLGDFFRKSKEKIGKEFKRIVQRIKDFLRNLVPRTES (FALL39 Var.1 peptide sequence; listed as Homo sapiens),specific reduction of Aha1 mRNA at lower concentrations,human Aha1 mRNA; 5 μM peptide,clear and specific reduction of Aha1 mRNA
same,specific Aha1 mRNA reduction (relative to GAPDH mRNA) where toxicity is pronounced,human Aha1 mRNA; 10 μM or higher,only inconclusive evidence for a specific Aha1 mRNA reduction
same,transfection efficacy compared with TAT / control peptides,human Aha1 mRNA; NRTN: at lower non-toxic concentrations,inferior transfection efficacy than TAT
same,"internalization into cells (FACS, FITC channel)",MCF7 cells [2],strong accumulation
same,"cell viability / growth inhibition / toxicity (CellTiter-Glo, GAPDH mRNA levels)",MCF7 cells [3],significant toxicity
"FSRSLHSLLVDL (C-terminal Nor1 peptide sequence; listed as Homo sapiens) [Nor/Nur, reference compound]",cell viability / induction of apoptosis,[1],No reduction in cell viability or induction of apoptosis was observed
GAAEAAARVYDLGLRRLRQRRRLRRERVRAGTRIIGDGKFGMECRNSPVT (inactive NRTN4E-BP1 peptide sequence) [NRTNinact4E-BP1],cell viability / induction of apoptosis,[1],inactive
GAAEAAARVYDLGLRRLRQRRRLRRERVRAGTRIIYDRKFLMECRNSPVT [NRTN4E-BP1],potency compared to TAT-fused counterpart,[1],significantly higher potency
same,cell viability / induction of apoptosis,[1],remarked cytotoxicity
GRKKRRQRRRPPQ (Human immunodeficiency virus 1; TAT peptide sequence) [reference compound],difference of Aha1/GAPDH for luciferase siRNA and Aha1/GAPDH for Aha1 siRNA (Transfection),"human Aha1 mRNA; 20 μM, threshold value of FIG. 3",18%
same,complex formation with siRNA,siRNA duplex,forms complexes with the siRNA molecules
"GTRIIYDRKFLMECRNSPVT [4E-BP1, reference compound]",cell viability / induction of apoptosis,[1],No reduction in cell viability or induction of apoptosis was observed
PROK2: candidate peptide displaying the highest similarity with TAT (LTRKNNFGNGRQERRKRKRSKRKKEVPFFG; PROK2 peptide sequence; listed as Homo sapiens),siRNA transfection activity (specific Aha1 mRNA reduction relative to GAPDH mRNA),"human Aha1 mRNA; MCF7 cells, 100 nM siRNA, peptide 1 μM to 20 μM",did not show detectable transfection activity
